Source: patent US20190125735A1, “INHIBITION OF P38 MAPK FOR THE TREATMENT OF CANCER” (Board of Regents, The University of Texas System, priority 2015, published 2019)

What was measured:
4T1 cells = assay: 4T1 orthotopic mouse mammary carcinoma model (primary tumor, lung metastasis, CTCs); assay type: in vivo
Text: In order to investigate this, the 4T1 mouse mammary carcinoma model, which recapitulates many of the characteristics of human breast cancer, was employed.
Tumor progression was monitored weekly using caliper measurements and bioluminescence. Starting week 3 post-implantation, 5 mice per group were sacrificed and surgically excised the primary tumors and lungs were surgically excised. […] This observation was corroborated by caliper measurements (FIG. 15C) and the bioluminescent signal emitted by these tumors (FIGS. 20A, 20B). Indeed, there were no significant differences in the latency and growth rates of the vehicle- and SB203580-treated primary tumors during this timecourse (FIGS. 15C and 20B).
NOD/SCID and BALB/c mice were purchased from the Jackson Laboratory (Bar Harbor, Me., USA). To examine primary tumor formation and spontaneous metastasis, luciferase-labeled 4T1 cells (1×10^4 or 5×10^4) were injected into the inguinal mammary fat-pad of BALB/c mice. For experimental metastasis studies, 0.5×10^6 luciferase-labeled MDA-MB-231 cells were injected into NOD/SCID mice via the tail vein. […] Mice were assessed weekly for tumor growth and metastasis via subcutaneous injection of D-Luciferin (150 mg/kg; Caliper LifeSciences, Hopkinton, Mass., USA) and bioluminescent imaging (IVIS imaging system 200 series; Xenogen Corporation, PerkinElmer, Waltham, Mass., USA). Primary tumor size was measured with a caliper as the product of two perpendicular diameters (mm^2). At the indicated timepoints, primary tumors and lungs were surgically excised, imaged and processed for histology.
Mice were orthotopically injected with red fluorescent protein (RFP)/luciferase-labeled 4T1 cells. Starting week 3 post-injection, blood was collected, via cardiac puncture, in EDTA-coated tubes and treated with Ammonium-Chloride-Potassium lysing buffer (Invitrogen). Cells were cultured in RPMI-1640 medium containing 10% fetal bovine serum and penicillin/streptomycin. RFP-positive colonies were counted after 3 days.

BCR-ABL+ mouse ALL cells = conditions: MSC co-culture
Description: To measure cell proliferation, co-cultures of MSCs and luciferase-labeled leukemic cells were mixed with D-Luciferin (Biosynth, Itasca, Ill.) to a final concentration of 0.5 mg/mL. Samples were incubated at room temperature for 1 minute and were imaged with the IVIS Lumina imaging system (PerkinElmer, Waltham, Mass.).

mesenchymal cells = assay: Scratch/wound-healing assay of mesenchymal mammary cells; assay type: cell-based, human
Text: The effects of p38 inhibition on invasive potential, which strongly correlates with the formation of invadopodia, was investigated. These specialized actin-based cell membrane protrusions secrete matrix metalloproteinases, enabling degradation of the nearby extracellular matrix (Eckert et al., 2011). The formation of invadopodia was quantified by assessing the ability of cells to degrade FITC-conjugated gelatin.
Quantification of invadopodia (Eckert et al., 2011), scratch/wound-healing assays (Sarkar et al., 2015) fluorescence-activated cell sorting (FACS), and sphere-formation assays (Mani et al., 2008) were conducted as described previously.

mouse BCR-ABL+ ALL cells = assay: BCR-ABL+ ALL model in NOD-SCID mice; assay type: in vivo; conditions: dasatinib 10 mg/kg oral, dexamethasone 1 mg/kg oral, SB203580 40 mg/kg i.p.; treatment from day 5
Description: Leukemia progression was monitored by both bioluminescence imaging and quantifying mCherry+ ALL cells in peripheral blood samples by flow cytometry. […] Non-obese diabetic severe combined immunodeficient (NOD-SCID) mice were housed under high-barrier conditions in the Department of Veterinary Medicine and Surgery at MD Anderson. To generate the in vivo leukemia model, six to eight weeks old NOD-SCID mice were intravenously injected with luciferase- and mCherry-expressing BCR-ABL+ mouse leukemic cells (2×10^6 cells); engraftment of the transplanted cells was confirmed by bioluminescence imaging. For bioluminescence imaging, each mouse was intraperitoneally injected with D-Luciferin (150 mg/kg) and imaged using the IVIS Lumina imaging system (PerkinElmer).
Leukemia treatment started 5 days after transplantation. […] Treatment was continued until mice were succumbed to disease.
Bone marrow samples from the mice were harvested 4 days after initiating the drug treatment. […] Peripheral blood specimens were directly harvested from mice tail tips into PBS supplemented with ethylenediaminetetraacetic acid (2 mM). Red blood cells were subjected to lysis and were neutralized with 20% fetal bovine serum supplemented with alpha minimum essential medium. mCherry+ leukemic cells in the peripheral blood were detected by flow cytometry analysis after red blood cells were lysed.

[1] = tested on: HMLE-Snail-ER and HMLE-Twist-ER cells; assay: FACS CD44high/CD24low of 4-OHT-treated HMLE-Snail-ER and HMLE-Twist-ER cells; assay type: cell-based, human; conditions: 4-OHT-treated cells, SB203580 exposure
Description: FIGS. 15A-15L: p38 inhibition compromises the acquisition and maintenance of EMT and stem cell properties in vitro. […] Cells were harvested and the corresponding lysates were analyzed by immunoblotting for FOXC2, E-cadherin and mesenchymal markers. β-actin was used as a loading control. […] Cells were harvested at the indicated timepoints and the corresponding lysates were analyzed by immunoblotting for FOXC2, E-cadherin and mesenchymal markers. β-actin was used as a loading control. […] One thousand cells were seeded per well in ultra-low attachment plates and cultured for 7-10 days. Spheres with a diameter greater than 75 μm were counted. The data are reported as the number of spheres formed/1000 seeded cells±SEM. […] Data are presented as mean±SEM. […] The corresponding lysates were analyzed by immunoblotting for FOXC2, E-cadherin and mesenchymal markers. β-actin was used as a loading control. (F) The sphere-forming efficiency of 4-OHT-treated HMLE-Twist-ER cells, transduced with control shRNA (shControl) or p38 shRNA (shp38), was determined. […] (H) The sphere-forming efficiency of the indicated cells was determined in the presence of vehicle or SB203580. […] (J) The relative wound closure by the indicated cells, treated with vehicle or SB203580, was measured by image analysis and represented in a graphical format. […] Degradation of FITC-gelatin was quantified by image analysis. n=150 cells/sample. […]

DU145 cells = assay: MTS cell survival assay, DU145 cells; assay type: cell-based, human
Description: Immunoblotting, Immunofluorescence, RTPCR, wound healing- and tumorsphere assays were performed as previously described (Sarkar et al., 2015). Cell viability (MTS) was assessed using the CellTiter96 Aqueous One-Solution Cell Proliferation Assay kit (Promega).

Structure (SMILES): C[S+]([O-])c1ccc(-c2nc(-c3ccc(F)cc3)c(-c3ccncc3)[nH]2)cc1 (centres unmarked) [SB203580, 4-(4-Fluorophenyl)-2-(4-methylsulfinylphenyl)-5-(4-pyridyl) 1H-imidazole]
- Primary tumor size (4T1 cells; 4T1 cells, daily treatment, weeks 3-6): primary tumors of a similar size relative to vehicle-treated counterparts
- Lung metastases (bioluminescent signal) (4T1 cells; 4T1 cells, systemic daily treatment): strikingly fewer lung metastases
- Metastatic burden (lung) (4T1 cells; mice harboring 4T1-FOXC2(S367E) cells): failed to significantly reduce the metastatic burden
- Reduction of incidence of lung metastases compared to vehicle (4T1 cells; mice harboring 4T1-vector cells, daily SB203580): > 20 fold
- Primary tumor growth (4T1 cells; mice harboring 4T1-vector or 4T1-FOXC2(S367E) cells): no significant differences in primary tumor growth
- Microvessel density of primary tumors (CD31 immunohistochemistry) (4T1 cells; vs vehicle-treated): did not reveal significant differences
- CTCs recovered from blood (4T1 cells; week 6 post-implantation): very few CTCs were recovered
- CTCs recovered from blood (4T1 cells; weeks 3-5 post-implantation): no CTCs were recovered from SB203580-treated mice until week 5
- Proliferation of leukemic cells (BCR-ABL+ mouse ALL cells): did not affect proliferation or apoptosis of leukemic cells
- Migratory capacity (mesenchymal cells): markedly reduced the migratory capacity of mesenchymal cells
- Leukemia progression and survival (therapeutic efficacy) (mouse BCR-ABL+ ALL cells): did not slow leukemia progression or prolong survival
- CD44^high/CD24^low marker profile [1]: failed to acquire
- Sensitivity of cells to Docetaxel (cell survival) (DU145 cells; DU145, SB203580 pre-treatment then co-treatment with SB203580 and Docetaxel): significantly resensitized
- Sensitivity of cells to Enzalutamide (cell survival) (DU145 cells; DU145, SB203580 pre-treatment then co-treatment with SB203580 and Enzalutamide): significantly resensitized
